Entries after “also recorded” stand apart in the source; their conditions may differ.
What was measured:
heparanase = assay: Inhibition of T lymphocyte heparanase activity (degradation of 35S-labeled heparan sulfate of extracellular matrix); assay type: biochemical; conditions: medium of activated T lymphocytes, 35S-labeled extracellular matrix, various concentrations
Experimental: Heparanase activity was induced into the extracellular medium bathing activated T lymphocytes and tested by incubating the medium with extracellular matrix whose heparan sulfate was labeled with ^35 S as described (Naparstek, Y., Cohen, I. R., Fuks, Z. and I. Vlodavsky. Activated T lymphocytes produce a matrix-degrading heparan sulphate endoglycosidase. Nature 310:241 (1984)). Inhibition of heparanase activity was tested by adding various concentrations of heparin or modified heparins to the reaction mixture and measuring the effect on degradation of the labeled heparin-sulfate as described (Naparstek, Y., Cohen, I. R., Fuks, Z. and I. Vlodavsky.
Activated T lymphocytes produce a matrix-degrading heparan sulphate endoglycosidase, Nature 310:241 (1984)). Totally desulfated heparin and N-desulfated, N-acetylated heparin was prepared as described. (Ayotte, L., A. S. Perlin. NMR spectroscopic observations related to the function of sulfate groups in heparin. Calcium binding vs. biological activity. Carbohydrate Res. 145:267 (1986)).

skin allografts = assay: Skin allograft survival (SJL/J skin on (BALB/c×C57BL/6)F1 mice); assay type: in vivo; conditions: 10 mg/kg daily, saline control 10 days
Experimental: FIG. 1. Treatment with heparin (0.05 mg/kg) prevents rejection of skin allografts. Mice of hybrid strain (BALB/c×C57BL/6)F1 were grafted with skin from allogeneic SJL/J mice. The mice (20 per group) were treated daily with subcutaneous injections of saline (squares) or with heparin ("Leo", 0.05 mg/kg; diamonds) and scored for skin graft survival. Median survival for the control group was 10 days while that for the heparin treated group was 24 days.
FIG. 2. Treatment with N-desulfated, N-acetylated heparin (10 mg/kg) prevents rejection of skin allografts. Mice were grafted as described for FIG. 1 and treated daily with saline (squares) or N-desulfated, N-acetylated heparin (10 mg/kg; diamonds). The median survival of the skin allograft in the control group was 10 days while that in the treated group was 20 days.
The median survival time of the skin grafts on control mice treated with saline was […] while that on mice treated with 0.05 mg/kg daily of heparin was 26 days with maximal survival to 32 days.

[1] = system: experimental autoimmune encephalomyelitis (EAE); assay: Experimental autoimmune encephalomyelitis (EAE) produced by anti-BP T lymphocytes; assay type: in vivo, Lewis rats; conditions: 10 mg/kg daily
Description: EAE is an experimental autoimmune disease with some features reminiscent of multiple sclerosis in humans. The disease is caused by T lymphocytes immunized to the basic protein (BP) of the central nervous system myelin. To test the effect of heparins on the ability of T lymphocytes to cause autoimmune disease, we used T lymphocytes sensitized against BP, either as T cell lines (Cohen, I. R. Experimental autoimmune encephalomyelitis: Pathogenesis and prevention. In: Immunoregulatory Processes in Multiple Sclerosis and Experimental Allergic Encephalomyelitis. A. A. Vandenbark and J. C. M. Raus, eds. Elsevier Biomedical Res. Amsterdam. 7:91-125 (1985)) or as populations of lymph node cells from BP immunized rats.
EAE was produced by inoculating Lewis rats with a T cell line of anti-BP T lymphocytes (10^6 cells) with anti-BP primed lymph node cells (10^7 cells) intravenously (Cohen, I. R. Experimental autoimmune encephalomyelitis: Pathogenesis and prevention. In: Immunoregulatory Processes in Multiple Sclerosis and Experimental Allergic Encephalomyelitis. A. A. Vandenbark and J. C. M. Raus, eds. Elsevier Biomedical Res. Amsterdam. 7:91-125 (1985)) One day before inoculation and daily for 10 days, the rats received either saline or the heparins.

adjuvant arthritis = assay: Adjuvant arthritis induced with M. tuberculosis; assay type: in vivo, Lewis rats; conditions: for Inhibition of arthritis / Arthritis score (day 60): rat, in vivo; for Arthritis score (day 60): sc
activated T lymphocytes = assay: Traffic of 51Cr-labeled lymphocytes from subcutaneous site and in blood; assay type: in vivo; conditions: rats or mice
Description: To test the effect of modified heparin on T lymphocyte traffic, we labelled the lymphocytes with ^51 Cr and measured the uptake of the labeled lymphocytes from a subcutaneous site and their persistence in the blood.
Furthermore, treatment with the modified heparin led to persistence of labeled lymphocytes in the blood for 4-5 days, while the untreated rats or mice cleared the labeled lymphocytes from the blood in 1 day. Thus, treatment with modified heparin inhibited the ability of T lymphocytes to enter the blood vessels, and once in the blood vessels, prevented the T lymphocytes from exiting. This can be attributed to inhibition of the heparanase enzyme activity needed to penetrate the extracellular matrix of the vessel wall.

[2] = rat, in vivo, 10 mg/kg

N-desulfated, N-acetylated heparin
Inhibition of degradation of heparan sulfate by heparanase (heparanase): yes
Median survival of skin allograft (skin allografts): 20 days
Duration of EAE ([1]; A: T cell line, None 4.2): 1.8 days
Day of onset of EAE ([1]; A: T cell line, None 5.2): 6.4
% incidence of EAE ([1]; A: T cell line, None 100): 50%
Clinical score of EAE ([1]; A: T cell line, scale 1-4, None 2.4): 0.8
% incidence of EAE ([1]; C: primed lymph node cells, None 80): 0%
Inhibition of adjuvant arthritis (FIG. 4) (adjuvant arthritis; 0.02 mg per rat (0.1 mg/kg) s.c. once daily from day 9, 0.1 mg/kg): significant inhibition of arthritis; also recorded: maximum effect
Inhibition of adjuvant arthritis (FIG. 4) (adjuvant arthritis; 0.04 mg s.c. once daily from day 9): ineffective
Histologic examination of the joints (adjuvant arthritis; 0.1 mg/kg/day from day 21 to 51, control rats severe signs of inflammation): healthy joints
Remission of established adjuvant arthritis (FIG. 5) (adjuvant arthritis; 0.1 mg/kg/day s.c. from day 21 to 51): early remission of established adjuvant arthritis
Inhibition of arthritis (adjuvant arthritis): yes
Arthritis score (day 60) (adjuvant arthritis): 0
Persistence of labeled lymphocytes in the site of injection into the tail (activated T lymphocytes; 0.05 mg/kg, control 1-2 days): 5 to 6 days
Persistence of labeled lymphocytes in the blood (activated T lymphocytes; untreated cleared in 1 day): 4 to 5 days
Anti-coagulant effect (prothrombin time) [2]: no anti-coagulant effect

O-desulfated, N-acetylated heparin
Inhibition of arthritis (adjuvant arthritis): yes
Arthritis score (day 60) (adjuvant arthritis): 0

totally desulfated heparin [Heparin: totally desulfated]
Inhibition of degradation of heparan sulfate by heparanase (heparanase): no
Inhibition of arthritis (adjuvant arthritis): no
Arthritis score (day 60) (adjuvant arthritis): 5

N-desulfated heparin
Inhibition of arthritis (adjuvant arthritis): no
Arthritis score (day 60) (adjuvant arthritis): 5

Source: US5206223A, “Method for inhibiting heparanase activity” (Yeda Research and Development Co. Ltd., priority 1986, dated 1993)
